From publication PMC12305494, “Discovery of PXR Antagonist MI891 and PXR Degrader MI1013 and Their Roles in Hepatic Gene Regulation” (Journal of Medicinal Chemistry, 2025)

Legend:
PXR LBD = target: T1, PXR LBD (Homo sapiens, UniProt O75469); assay: LanthaScreen TR-FRET PXR competitive binding assay; conditions: recombinant PXR LBD, competition with tracer
T1 construct: purchased Thermo Fisher Scientific PV4839
Description: (§1) We utilized the LanthaScreen TR-FRET CAR Coactivator Binding Assay Kit, goat (Thermo Fisher Scientific, Cat. No. PV4836), which includes GST-tagged human CAR LBD and a fluorescein-labeled PGC1α coactivator peptide. The assay was performed with slight modifications to the manufacturer’s protocol, as previously reported. […] The interaction with the PXR ligand-binding domain (LBD) was assessed using the LanthaScreen TR-FRET PXR Competitive Binding Assay (Thermo Fisher Scientific, PV4839), as previously described. This assay quantifies the ability of test compounds to displace a fluorescent PXR ligand from the receptor. Fluorescence readings were taken on a Synergy 2 Multi-Mode Microplate Reader (BioTek, Winooski, VT). The half-maximal inhibitory concentration (IC50) for PXR LBD was calculated from at least eight data points using GraphPad Prism software.

human CAR LBD = target: T2, human CAR LBD (Homo sapiens, UniProt Q14994); assay: LanthaScreen TR-FRET CAR Coactivator assay; assay type: biochemical; conditions: nb = no binding
T2 sequence (Q14994 103-352): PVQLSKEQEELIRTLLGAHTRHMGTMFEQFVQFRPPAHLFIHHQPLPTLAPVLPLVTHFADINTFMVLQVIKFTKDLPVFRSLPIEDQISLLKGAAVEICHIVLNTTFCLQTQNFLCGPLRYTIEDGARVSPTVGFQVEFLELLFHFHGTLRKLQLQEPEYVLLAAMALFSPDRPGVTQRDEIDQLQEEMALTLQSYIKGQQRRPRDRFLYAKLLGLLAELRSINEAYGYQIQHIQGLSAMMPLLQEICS
Description: as §1

PPARα = PPARα (Homo sapiens, UniProt Q07869); assay: PPARα luciferase reporter assay, agonistic and antagonistic setups; assay type: cell-based; conditions: prototype ligand fenofibrate
Description: (§2) For the farnesoid X receptor (FXR) luciferase gene reporter assay, the full-length expression vector was paired with pFXRE-luc luciferase construct. The p1A1-luc construct was used in the aryl hydrocarbon receptor (AhR) assays with pRL-TK for normalization. Gal4-LXR-α/β, and Gal4-PPAR-γ constructs were used with the pGAL4 UAS-luc construct. For the VDR assay, expression vector pSG5-hVDR together with pVDRE-luc constructs was used. Firefly and Renilla luciferase activities were analyzed using a Dual reporter assay (Promega). For the nuclear receptor assays, prototype ligands were used at the following concentrations: Calcitriol for VDR (100 nM), GW3965 for LXRα and LXRβ (10 μM), 6-OCA for FXR (1 μM), fenofibrate for PPARα (10 μM), estradiol for ERα and β (10 μM), rosiglitazone for PPARγ (10 μM), 3-MC for AhR (5 μM), and TCPOBOP for mCAR (10 μM). Detailed descriptions and protocols are detailed in our recent publication. ,

LXRβ = target: T3, LXRβ (Homo sapiens, UniProt P55055); assay: LXRβ luciferase reporter assay, agonistic and antagonistic setups; assay type: cell-based; conditions: prototype ligand GW3965
T3 construct: expressed in transfected cells
Description: as §2

[1] = Plasma stability, mouse plasma; assay type: in vitro ADME; conditions: up to 120 min, read-out: Plasma stability, t1/2 (min), mouse
Description: The protocols and reagents for the plasma protein binding assay and metabolic stability testing in human and mouse liver microsomes are detailed in our previous report. Briefly, metabolic stability of compounds was assessed at a single concentration (5 μM) at t = 0, 10, 30, and at t = 45 min. The stability of compounds was tested in human and mouse microsomes (ThermoFisher Scientific). Compounds were tested in triplicate with or without NADPH wells as a negative control for cytochrome P450 metabolism. In addition to hepatic metabolism, compounds were also subjected to degradation/modification by enzymes in human (VWR International) and mouse (Biomedica, CZ) plasma for t = 0, 30, 60, and at t = 120 min. Each assay included a substrate with known activity as a positive control. Time points were analyzed by LC/MS/MS. The peak area for the parent compound is compared to the time zero sample in order to assess the amount of remaining compound.

vitamin D receptor (VDR) = target: T4, vitamin D receptor (VDR) (Homo sapiens, UniProt P11473); assay: VDR luciferase reporter assay, agonistic and antagonistic setups; assay type: cell-based; conditions: prototype ligand calcitriol
T4 construct: expressed in transfected cells
Description: as §2

PXR = target: T5, PXR (Homo sapiens, UniProt O75469); assay: PXR-responsive CYP3A4 promoter luciferase reporter assay in HepG2, inverse agonist mode (basal activity); assay type: cell-based; parameters: expressed in transfected cells; host or cells: HepG2; conditions: for PXR inverse agonism: decrease of basal activity in %: tested at 10 μM, DMSO (0.1%) = 100% basal activity
T5 sequence (O75469 1-434): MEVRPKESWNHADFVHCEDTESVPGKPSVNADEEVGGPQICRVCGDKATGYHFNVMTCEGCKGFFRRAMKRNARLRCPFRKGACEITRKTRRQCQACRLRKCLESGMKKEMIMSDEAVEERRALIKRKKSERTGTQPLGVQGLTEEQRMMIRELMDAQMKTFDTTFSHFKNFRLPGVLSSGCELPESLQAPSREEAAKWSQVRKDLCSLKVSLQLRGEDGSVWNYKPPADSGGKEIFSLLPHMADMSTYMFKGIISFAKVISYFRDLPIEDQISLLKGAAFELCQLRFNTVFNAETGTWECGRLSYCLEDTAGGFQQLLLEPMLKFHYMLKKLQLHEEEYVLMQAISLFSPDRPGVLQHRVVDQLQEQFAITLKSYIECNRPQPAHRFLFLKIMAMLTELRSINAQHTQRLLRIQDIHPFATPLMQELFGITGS
Description: Rhesus monkey, mouse, and rat PXR expression vectors (100 ng/well each) were also obtained from GenScript. […] Carlberg (University of Kuopio, Kuopio, Finland).
The cells were cultured in DMEM medium (Merck) supplemented with 10% fetal bovine serum.

[2] = target: T6, farnesoid X receptor (FXR) (Homo sapiens, UniProt Q96RI1); assay: FXR luciferase reporter assay, agonistic and antagonistic setups; assay type: cell-based; conditions: prototype ligand 6-OCA
T6 construct: the full-length expression vector was paired with pFXRE-luc luciferase construct; expressed in transfected cells
Description: as §2

Chain of PPARα (Q07869 whole entry, the tested form may be a part): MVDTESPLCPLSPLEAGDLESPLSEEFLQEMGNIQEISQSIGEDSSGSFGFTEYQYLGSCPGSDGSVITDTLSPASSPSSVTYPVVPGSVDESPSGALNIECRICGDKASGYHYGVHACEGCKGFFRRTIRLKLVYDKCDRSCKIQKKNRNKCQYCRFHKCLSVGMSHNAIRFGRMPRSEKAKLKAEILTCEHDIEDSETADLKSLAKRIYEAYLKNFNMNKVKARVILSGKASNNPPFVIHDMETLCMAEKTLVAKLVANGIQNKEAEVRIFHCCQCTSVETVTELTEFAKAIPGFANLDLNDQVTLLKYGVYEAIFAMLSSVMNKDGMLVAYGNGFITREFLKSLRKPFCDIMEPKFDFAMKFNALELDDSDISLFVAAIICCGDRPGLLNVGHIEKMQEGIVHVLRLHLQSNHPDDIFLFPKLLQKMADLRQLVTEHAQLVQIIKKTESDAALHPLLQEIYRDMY
T6 sequence (Q96RI1 whole entry): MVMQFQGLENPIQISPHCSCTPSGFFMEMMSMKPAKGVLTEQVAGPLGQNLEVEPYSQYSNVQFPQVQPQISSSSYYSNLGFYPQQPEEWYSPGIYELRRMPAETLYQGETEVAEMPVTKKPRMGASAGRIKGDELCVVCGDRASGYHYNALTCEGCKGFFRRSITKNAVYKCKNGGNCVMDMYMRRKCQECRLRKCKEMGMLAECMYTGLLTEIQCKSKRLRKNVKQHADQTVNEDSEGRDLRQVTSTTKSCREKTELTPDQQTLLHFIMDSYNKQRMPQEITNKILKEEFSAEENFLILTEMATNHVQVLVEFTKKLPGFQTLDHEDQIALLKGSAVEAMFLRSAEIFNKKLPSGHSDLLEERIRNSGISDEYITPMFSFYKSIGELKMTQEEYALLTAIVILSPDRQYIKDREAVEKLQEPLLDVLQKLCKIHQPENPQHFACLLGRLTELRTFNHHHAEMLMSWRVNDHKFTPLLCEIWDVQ
T4 sequence (P11473 whole entry): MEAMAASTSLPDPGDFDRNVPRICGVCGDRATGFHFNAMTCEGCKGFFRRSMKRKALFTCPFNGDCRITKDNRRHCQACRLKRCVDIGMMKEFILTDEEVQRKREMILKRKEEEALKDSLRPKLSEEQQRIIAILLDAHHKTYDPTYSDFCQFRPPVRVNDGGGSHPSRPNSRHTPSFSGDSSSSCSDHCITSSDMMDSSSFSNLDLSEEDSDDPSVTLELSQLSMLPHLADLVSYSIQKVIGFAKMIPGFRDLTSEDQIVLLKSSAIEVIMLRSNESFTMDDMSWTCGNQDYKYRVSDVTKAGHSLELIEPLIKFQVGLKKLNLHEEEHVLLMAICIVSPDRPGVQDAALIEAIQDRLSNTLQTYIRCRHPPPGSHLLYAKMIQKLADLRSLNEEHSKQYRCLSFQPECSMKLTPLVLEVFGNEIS
T3 sequence (P55055 222-460 limits assumed): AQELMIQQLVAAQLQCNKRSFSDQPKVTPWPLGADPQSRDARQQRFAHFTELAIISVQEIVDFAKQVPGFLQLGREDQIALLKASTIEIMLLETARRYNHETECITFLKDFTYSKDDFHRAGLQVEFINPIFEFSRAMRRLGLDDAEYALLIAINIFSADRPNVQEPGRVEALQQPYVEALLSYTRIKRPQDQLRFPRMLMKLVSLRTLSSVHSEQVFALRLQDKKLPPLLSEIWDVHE

Row | binding to PXR LBD compared to MI1011B and SR12813 (PXR LBD) | CAR TR-FRET (EC50, μM) (human CAR LBD; listed as 11 (MI891)) | CAR TR-FRET (EC50, μM) (human CAR LBD; listed as MI891) | half-life [1] | inhibition at 10 µM (PXR; HepG2, at 10 μM, read-out: maximal inhibition (inverse agonism)) | IC50 (PXR; compound alone, HepG2, read-out: IC50, inverse agonistic activity) | PXR inverse agonism: decrease of basal activity in % (PXR) | PXR inverse agonism: decrease of basal activity in % (PXR; listed as 11 (MI891)) | Molecule | agonistic or antagonistic activity on PPARα (PPARα) | agonistic or antagonistic activity on LXRβ (LXRβ) | agonistic or antagonistic activity on VDR (vitamin D receptor (VDR)) | agonistic or antagonistic activity on FXR [2]
1 | weaker binding to PXR LBD |  |  |  |  |  |  |  | N-(4-((1-(2,5-dimethoxyphenyl)-5-methyl-1H-1,2,3-triazol-4-yl)sulfonyl)phenyl)-3-(2-(2-(2-(4-(((2-(2,6-dioxopiperidin-3-yl)-1,3-dioxoisoindolin-4-yl)amino)methyl)-1H-1,2,3-triazol-1-yl)ethoxy)ethoxy)ethoxy)propenamide [Compound 36] |  |  |  | 
2 |  | nb | no binding activity | > 120 min | 68.8 ± 5.5% | 6.1 µM | (-68.84±5.53) % | –68.84 ± 5.53% | NC(=O)c1cc(Cn2cc(-c3c(-c4ccc(Cl)cc4)nc4c(F)cc(F)cn34)nn2)ccc1Cl [Compound 11, 2-Chloro-5-((4-(2-(4-chlorophenyl)-6,8-difluoroimidazo[1,2-a]pyridin-3-yl)-1H-1,2,3-triazol-1-yl)methyl)-benzamide] | no significant agonistic or antagonistic activities | no significant agonistic or antagonistic activities | no significant agonistic or antagonistic activities | no significant agonistic or antagonistic activities
